Data: patent publication US20170273985A1, “TRICYCLIC DERIVATIVE” (Sunovion Pharmaceuticals Inc., priority 2014, published 2017)

How the values were obtained:
Type in all cases: biochemical
PDE1B = PDE1B (Homo sapiens, UniProt Q01064); experiment: In vitro HTRF PDE1 inhibition assay (PDE1B); conditions: Table 25
In short: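 PDE1A3, 1B or 1C with calmodulin hydrolysed 100 nM cGMP in Tris buffer pH 7.4 (1 mM CaCl2, 10 mM MgCl2, 0.1% BSA, 1% DMSO) for 45 min at 37 °C. Remaining cGMP was measured by HTRF competition (d2-cGMP, anti-cGMP cryptate; 665/615 nm). IC50 is reported in bins: <1, 1-10 and 10-100 μM.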

PDE1A3 = PDE1A3 (Homo sapiens, UniProt P54750); experiment: In vitro HTRF PDE1 inhibition assay (PDE1A3); conditions: Table 26
Excerpt: (§1) An exemplary procedure for the in vitro Homogenous Time Resolved Fluorescence assay, which can be used to determine the inhibitory action of compounds of the invention toward PDE1 or its isoforms, follows. The HTRF PDE1 assay utilized the HTRF (Homogenous Time Resolved Fluorescence) technology, which is based on the competition between unlabeled cyclic nucleotide and cyclic nucleotide labeled with XL665 for the binding to cyclic nucleotide-specific antibody labeled with cryptate. The HTRF signal is thus inversely proportional to the concentration of cyclic nucleotide being measured. Since phosphodiesterases break down cyclic nucleotides the HTRF signal was used to determine PDE activity. The Cisbio cGMP HTRF assay kit (Cat no: 62GM2PEC) was utilized. Cyclic GMP was diluted to 200 nM in HTRF assay buffer (1 mM CaCl2, 10 mM MgCl2, 10 mM Tris-HCl, 0.1% BSA, pH 7.4). 10 μl of compound or DMSO was diluted in 200 nM cyclic GMP solution and added to wells of a 96 well white plate to give 100 nM cyclic GMP in 1% DMSO final concentration. PDE (1A3, 1B or IC) was diluted to 2× working concentration in HTRF assay buffer with 2 μg/ml calmodulin, and 10 μl was added to initiate the reaction. The plate was then incubated for 45 minutes at 37° C. d2-Labelled cyclic GMP and anti-cGMP cryptate were diluted in 50 mM phosphate buffer, 0.8 M KF, 1% Triton X100, 0.2% BSA, pH 7.0. Following incubation 10 μl d2-cGMP, then 10 μl anti cGMP cryptate were added to each well and the plate was incubated for 45 minutes at room temperature. The plate was then read on Perkin Elmer Victor at 2 different FRET readings ex/emm 340 nm/665 nm and 340 nm/615 nm. Compounds having an IC50 of <1 μM, are denoted as +++. Compounds having an IC50 of 1−10 μM, are denoted as ++. Compounds having an IC50 of 10-100 μM, are denoted as +.

PDE1C = PDE1C (Homo sapiens, UniProt Q14123); experiment: In vitro HTRF PDE1 inhibition assay (PDE1C); conditions: Table 27
Excerpt: as §1

Measured: IC50

O=c1c2cnc(C3CCOCC3)n2nc2n1CCN2CC1CCC(F)(F)CC1 [Example 171]
< 1000 nM: all assays above

CC(C)CCN1CCn2c1nn1c(C3CCOCC3)ncc1c2=O [Example 172]
< 1000 nM: all assays above

O=c1c2cnc(C3CCOCC3)n2nc2n1CCCN2CC1(C(F)(F)F)CC1 [Example 187]
< 1000 nM: all assays above

O=c1c2cnc(C3CCOCC3)n2nc2n1CCCN2CC1CCC(F)(F)CC1 [Example 190]
< 1000 nM: all assays above

CO[C@H]1CC[C@H](CN2CCCn3c2nn2c(C4CCOCC4)ncc2c3=O)CC1 [Example 191]
< 1000 nM: all assays above

CCO[C@H]1CC[C@H](CN2CCCn3c2nn2c(C4CCOCC4)ncc2c3=O)CC1 [Example 193]
< 1000 nM: all assays above

CC(C)c1ncc2c(=O)n3c(nn12)N(CC1CCOCC1)CC1(CC1)C3 [Example 200]
< 1000 nM: all assays above

CC(C)c1ncc2c(=O)n3c(nn12)N(CC1CCOCC1)C[C@@H](C)C3 [Example 232]
< 1000 nM: all assays above

CC(C)c1ncc2c(=O)n3c(nn12)N(CC1CCOCC1)C[C@H](C)C3 [Example 233]
< 1000 nM: all assays above
